For 26 compounds, TGI and GI50 results are on record in PubChem BioAssay (NCI).

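How tested: cells in 96-well plates exposed to compound for 48 hours at five concentrations. At the GI50, growth is halved. TGI is the concentration that stops growth completely.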

Assay in all cases: NCI anticancer screen, dose series, 48 h
The subject of experiment [1] is OVCAR-5 ovarian.
The subject of experiment [2] is NCI-H460 lung.
In experiment [3] the test system is UACC-62 melanoma.
Experiment [4] concerns SW-620 colon.
For experiment [5], the system named is A549 NSCLC.
Experiment [6] concerns NCI-H23 lung.
The test system of experiment [7] is HOP-92 NSCLC.
For experiment [8], the system named is SK-MEL-2 melanoma.
The test system of experiment [9] is SF-295 CNS.
Experiment [10] has as its system HCT-116 colon.

As to `CC(O)=NC(Cc1ccc2ccccc2c1)C(O)=NC(Cc1ccc(Cl)cc1)C(O)=NC(Cc1c[nH]c2ccccc12)C(O)=NC(CO)C(O)=NC(Cc1ccc(O)cc1)C(O)=NC(CCCN=C(N)N)C(O)=NC(CC(C)C)C(O)=NC(CCCN=C(N)N)C(=O)N1CCCC1C(O)=NC(C)C(=N)O` (stereo not given), the TGI in experiment [1], in experiment [2], in [3], in experiment [4], in experiment [5] and in experiment [6] was greater than 100 µM in each case. Besides, the TGI in experiment [7] is greater than 100 µM; in experiment [8] it was 90.9 µM; in experiment [9], greater than 100 µM.
For the compound `CCOC(=O)[C@H]1C[C@]23CN(C(=O)OC(C)(C)C)CC[C@H]2CCC2(SCCCS2)[C@@H]3N1C`, the TGI in experiment [1], in experiment [2], in experiment [3], in experiment [4], in experiment [5] and in experiment [6] was greater than 100 µM each time. Further, the TGI in experiment [7] is 51 µM; in [10], greater than 100 µM; in [8], 63.3 µM; in experiment [9], greater than 100 µM.
Take `COc1c2ccoc2c(S(=O)(=O)Nc2ccc(Cl)cc2)c2oc(C)cc(=O)c12`: the TGI in [1], in [2], in experiment [3], in experiment [4], in experiment [5] and in experiment [6] was greater than 100 µM throughout. Besides, the TGI was greater than 93.6 µM in [7], greater than 89.2 µM in [10], greater than 100 µM in [8] and greater than 100 µM in experiment [9].
As to `OC1(c2ccc3ccccc3c2)c2ccc3ccccc3c2C2=NCCN21` (stereo not given), the TGI in experiment [1], in experiment [2], in experiment [3], in experiment [4], in [5] and in experiment [6] was greater than 100 µM throughout. For the same compound, the TGI in [7], in [10], in experiment [8] and in experiment [9] was greater than 100 µM in each case.
As to `Cc1onc(-c2c(F)cccc2Cl)c1C(=O)N[C@@H]1C(=O)N2[C@@H]1SC(C)(C)[C@@H]2C(=O)O`, the TGI in [1], in experiment [2], in experiment [3], in [4], in [5] and in experiment [6] was greater than 100 µM in each case. Besides, the TGI in [7], in experiment [10], in experiment [8] and in experiment [9] was greater than 100 µM each time.
Take `ClCC1(CCl)COC1`: the TGI in experiment [2], in experiment [4], in experiment [5], in experiment [6], in experiment [7] and in experiment [10] was greater than 100 µM each time. This compound also registered a TGI in experiment [9] greater than 100 µM.
As to `O=C(/N=C/c1c(O)c2ccccc2oc1=O)NC1CCCCC1`, the TGI in experiment [1], in experiment [2], in experiment [3], in experiment [4], in experiment [5] and in experiment [6] was greater than 100 µM in each case. For the same compound, the TGI in experiment [7], in experiment [10] and in experiment [8] was greater than 100 µM throughout.
As for `COc1cc(NCc2ccc3n2-c2ccccc2OC3)cc(OC)c1OC`, the TGI in [1] was greater than 100 µM; in [2], greater than 100 µM; in [3] it was 43.4 µM; in [4], greater than 100 µM; in [5], greater than 100 µM; in experiment [6], greater than 100 µM. In addition, the TGI in experiment [7] was 51.3 µM; in experiment [10] it was greater than 100 µM; in experiment [8], 69.2 µM; in experiment [9] it was 63.9 µM.
Consider `CCCC(=O)OCC(O)CO` (stereo not given), for which the TGI was 4700 µM in experiment [1]; greater than 5000 µM in [2]; greater than 5000 µM in [3]; greater than 5000 µM in experiment [4]; greater than 5000 µM in experiment [5]; greater than 5000 µM in [6]. For the same compound, the TGI in experiment [7], in experiment [10], in experiment [8] and in experiment [9] was greater than 5000 µM in each case.
`CCOc1ccc2c(c1)NC(=O)C(C1OC(c3ccccc3)=CC1=O)S2` (stereo not given): the TGI turned out to be 36.5 µM in experiment [1]; 39 µM in experiment [2]; 35.1 µM in [3]; 88.8 µM in experiment [4]; 46.8 µM in experiment [5]; 94.2 µM in [6]. Further, the TGI in experiment [10] was 88.2 µM; in experiment [8] it was greater than 100 µM; in experiment [9] it was 83.5 µM.
With `CO[C@]12C[C@H](CNC(=O)c3cc(Br)c(Br)[nH]3)O[C@H]1NC(=O)N2`, the TGI in experiment [1], in [2], in [3], in experiment [4], in experiment [5] and in experiment [6] was greater than 100 µM each time. Further, the TGI in [7], in experiment [10], in experiment [8] and in [9] was greater than 100 µM throughout.
On to `CC[N+](CC)(CC)/C(=N/S(=O)(=O)c1cc(C)c(Cl)cc1S)[N-]S(=O)(=O)c1ccc(Cl)cc1`, for which the TGI in [1] was greater than 100 µM; in experiment [2] it was greater than 100 µM; in experiment [4], greater than 100 µM; in experiment [6], greater than 100 µM; in [7], 49.7 µM; in experiment [10], 65.6 µM. In addition, the TGI in [8] and in [9] was greater than 100 µM each time.
On to `Cc1ccc(S(=O)(=O)NCCSS(=O)(=O)c2ccc(C)cc2)cc1`, for which the TGI in experiment [2] was greater than 100 µM; in experiment [4] it was 46.5 µM; in experiment [5], 63.5 µM; in experiment [6] it was greater than 100 µM; in experiment [7], greater than 100 µM; in experiment [10] it was 28.3 µM. This compound returned a TGI in experiment [9] greater than 100 µM.
For the compound `CCCc1ccc(OCC(=O)N/N=C/c2c(-c3ccccc3)[nH]c3ccccc23)cc1`, the TGI was 58.6 µM in experiment [1]; 22.7 µM in experiment [2]; 26.3 µM in experiment [3]; greater than 100 µM in experiment [4]; greater than 100 µM in experiment [5]; 38.2 µM in [6]. For the same compound, the TGI in experiment [7] was found to be 35.3 µM; in experiment [10], 27.7 µM; in experiment [8] it was 15.3 µM; in experiment [9], 34.4 µM.
Regarding `CS(=O)(=O)OCc1c(O)c2c(c(O)c1COS(C)(=O)=O)C(=O)C=CC2=O`, the TGI in experiment [1], in experiment [3], in [4], in [5], in experiment [6] and in experiment [7] was greater than 100 µM each time. The TGI in experiment [10], in [8] and in [9] was greater than 100 µM each time.
As for `C=C1C(=O)OC2/C=C(\C)CC(O)/C=C(/CO)CC(OC(=O)/C(C)=C/C)C12` (stereo not given), the TGI was 297 µM in [1]; 168 µM in experiment [2]; 274 µM in experiment [3]; 50.3 µM in experiment [4]; 451 µM in [5]; 136 µM in experiment [6]. Also, the TGI is 111 µM in experiment [7], 115 µM in experiment [10], 344 µM in experiment [8] and 401 µM in experiment [9].
For `C=CCC1=CC2(OC)C(=O)C(OC)(OC)C1C1C(OC)(OC)C(=O)C(OC)=CC12CC=C` (stereo not given), the TGI in experiment [1], in [2], in experiment [3], in [4], in experiment [5] and in experiment [6] was greater than 100 µM each time. For the same compound, the TGI in experiment [7], in experiment [10], in experiment [8] and in [9] was greater than 100 µM each time.
For `C[C@]12CC[C@H](O)CC1=CC[C@@H]1[C@@H]2CC[C@]2(C)C(=O)CC[C@@H]12`, the TGI in [1], in experiment [3], in experiment [4], in experiment [5], in experiment [6] and in experiment [10] was greater than 100 µM each time. Also, the TGI in [8] and in [9] was greater than 100 µM in each case.
`CC(C)Cc1cccc(C(C)C)c1NC(=O)CCC(=O)N/N=C1\C(=N/NC(=O)CCC(=O)Nc2c(C(C)C)cccc2C(C)C)C(c2ccc3c(c2)OCO3)Oc2ccccc21` (stereo not given): the TGI in experiment [1], in [2], in experiment [3], in experiment [4], in experiment [5] and in experiment [6] was greater than 100 µM throughout. Also, the TGI in [7], in experiment [10], in [8] and in [9] was greater than 100 µM each time.
With `COc1ccc(-n2cc(-c3ccc(OC)c(OC)c3)nc2SCc2ccccc2)cc1Cl`, the GI50 in experiment [2] is 25.5 µM; in experiment [3], 20.8 µM; in experiment [4] it was 29.9 µM; in experiment [5], 21.3 µM; in experiment [6], 22.7 µM; in experiment [7], 6.13 µM. For the same compound, the GI50 in [10] is 9.43 µM; in [8], 16.3 µM; in [9] it was 17.4 µM. For the same compound, the TGI was greater than 100 µM in experiment [2]; greater than 100 µM in experiment [3]; greater than 100 µM in [4]; greater than 100 µM in [5]; greater than 100 µM in experiment [6]; 38.6 µM in experiment [7]. In addition, the figures for the TGI in experiment [10], in experiment [8] and in [9] were greater than 100 µM, 56.3 µM and greater than 100 µM, respectively.
Consider `FC(F)(F)C1=NC(=NNc2nnc(-c3ccccc3)c(-c3ccccc3)n2)N=C(C(F)(F)F)C1`, for which the TGI was greater than 100 µM in experiment [1]; greater than 100 µM in experiment [2]; 30 µM in experiment [3]; greater than 100 µM in experiment [4]; greater than 100 µM in experiment [5]; greater than 100 µM in [6]. Besides, the TGI in [7] was greater than 87.3 µM; in experiment [10], greater than 93.6 µM; in experiment [8], greater than 100 µM; in experiment [9], greater than 100 µM.
On to `C[C@H](O)C(=O)SC[C@H](NC(=O)CC[C@@H](N)C(=O)O)C(=O)NCC(=O)O`, for which the TGI in experiment [1], in [2], in experiment [3], in experiment [4], in experiment [6] and in experiment [7] was greater than 100 µM throughout. For the same compound, the TGI in [10], in experiment [8] and in experiment [9] was greater than 100 µM throughout.
Turning to `Oc1ccc2ccccc2c1Cc1c(O)ccc2ccccc12`, the TGI in experiment [1] is 33.2 µM; in experiment [2] it was greater than 100 µM; in [3], 29.4 µM; in experiment [4], 39.9 µM; in experiment [5] it was 39.9 µM; in experiment [6], 37.8 µM. The TGI in experiment [10] worked out at 34.4 µM; in experiment [8], 41.7 µM; in [9], 37.1 µM.
Consider `C[n+]1c(-c2ccc(/C=N\NC(=O)c3ccc(C(=O)N/N=C/c4ccc(-c5cn6ccsc6[n+]5C)cc4)cc3)cc2)cn2ccsc21`, for which the TGI in [1] is 36.3 µM; in experiment [2], 42.1 µM; in [3], 47.1 µM; in [4], 40 µM; in experiment [5], 57.8 µM; in experiment [6], 50.9 µM. Also, the values for the TGI in experiment [7] and in experiment [8] were 36.4 µM and 75.6 µM, respectively.
With `O=c1cc(-c2nc3ccccc3[nH]2)[nH]c2nc(-c3nc4ccccc4[nH]3)cc(-c3ccc(Cl)cc3)c12`, the TGI in experiment [1] was 54.3 µM; in experiment [2] it was 43.6 µM; in experiment [3], 33.2 µM; in [4], 54.1 µM; in experiment [5], 87.2 µM; in experiment [6], greater than 100 µM. Moreover, the TGI in [7] stood at 55 µM; in [10], 35.2 µM; in [8], 30.5 µM; in experiment [9], 48.2 µM.
On to `CCOc1cc(NC(C)=O)ccc1C(=O)NN1C(=O)CSC1c1ccc(O)c(OC)c1` (stereo not given), for which the TGI in experiment [1], in experiment [2], in [3], in experiment [4], in experiment [5] and in [6] was greater than 100 µM in each case. For the same compound, the TGI in experiment [7], in experiment [10], in experiment [8] and in experiment [9] was greater than 100 µM in each case.
